Assay results reported in patent US4886750A, “Process for the preparation of a pharmaceutically active compound in a stereospecific form of the formula” (priority 1986, dated 1989).

Columns and labels:
[1] = target: T1, E. coli pNAPT-7 cell lysate (Bacillus subtilis, UniProt Q59248); assay: hydrolysis of ester substrates by E. coli pNAPT-7 cell lysate (Example 13); assay type: biochemical, Bacillus subtilis Thai I-8; details: for enzyme activity on substrate: 25° C., 0.1 MOPS pH 7.5, 0.3 mg ester/ml, 2% Tween, 1 mg/ml BSA, 2 hours
T1 construct: ammonium sulphate-precipitated, ultrafiltered lysate; about 31 kDa, untagged wild type
T1 sequence (Q59248 entry or part of it): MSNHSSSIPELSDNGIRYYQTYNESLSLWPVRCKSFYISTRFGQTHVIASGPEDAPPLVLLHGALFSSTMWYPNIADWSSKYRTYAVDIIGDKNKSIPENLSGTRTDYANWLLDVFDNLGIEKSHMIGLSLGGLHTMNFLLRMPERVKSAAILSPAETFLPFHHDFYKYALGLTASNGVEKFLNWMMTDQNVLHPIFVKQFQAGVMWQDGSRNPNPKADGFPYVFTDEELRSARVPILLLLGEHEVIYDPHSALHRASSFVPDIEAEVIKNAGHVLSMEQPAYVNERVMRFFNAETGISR
Method: The E. coli pNAPT-7 cell lysate after ammonium sulphate precipitation and ultrafiltration was tested on the hydrolysis of the ethyl ester of R and S-ibuprofen.
The enzyme activity was assayed at 25° C. in 0.1 MOPS buffer pH 7.5 with 0.3 mg of R or S-ibuprofen ethyl ester/ml, 2% Tween and 1 mg/ml BSA. After 2 hours incubation the reaction was stopped by the addition of acetonitrile.
The reaction mixture was analyzed on a HPLC-reversed phase column (Chrompack Polygosil 60D-10CN, 250×4.6 mm), eluted with 34% acetonitrile, 0.05M phosphoric acid pH 3.0 at a flow rate of 1.5 ml/min. Retention times for R and S-ibuprofen and the ethyl ester of R and S-ibuprofen were 5.98 minutes and 11.08 minutes respectively.

[2] = S-enantiomer vs antipode; cited from earlier work

With CCOC(=O)[C@H](C)c1ccc(CC(C)C)cc1 [R-ibuprofen ethyl ester, ethyl 2-(4-isobutyl-1-phenyl) propionate] the “enzyme activity on substrate” value [1] was 1865 u/l.

In the case of CCOC(=O)[C@@H](C)c1ccc(CC(C)C)cc1 [S-ibuprofen ethyl ester, ethyl 2-(4-isobutyl-1-phenyl) propionate], the “enzyme activity on substrate” value [1] is reported as 39600 u/l, the S-specificity ([1]; Table 12, ibuprofen ethyl ester) is reported as 95.3% and the “hydrolysis relative to the hydrolysing activity of the methyl ester of S-naproxen” value ([1]; tested under the same conditions) is reported as 60%.

For COC(=O)[C@@H](C)c1ccc2cc(OC)ccc2c1 [S-naproxen methyl ester, methyl 2-(6-methoxy-2-naphthyl) propionate], the “enzyme activity on substrate” value [1] was 65000 u/l.

For CC(C)Cc1ccc([C@H](C)C(=O)O)cc1 [ibuprofen, 2-(4-isobutyl-1-phenyl) propionic acid], the “in vitro anti-inflammatory activity of the S-enantiomer relative to its antipode” value [2] is given as “up to 150 times”.

For COc1ccc2cc([C@H](C)C(=O)O)ccc2c1 [naproxen, 2-(6-methoxy-2-naphthyl) propionic acid], the “in vitro anti-inflammatory activity of the S-enantiomer relative to its antipode” value [2] is listed as “up to 150 times”.
